In general, ED50 refers to the dose that gives a 50% effect, or the effect in half of the subjects.

Series [1] in a line: Solubility. It counts as physicochemical.
For series [2], the system named is systemic fungal infections. The note with it: cited from earlier work.
The subject of series [3] is fungi. The note with it: cited from earlier work.
Series [4] in a line: Acute toxicity in mice. Format: in vivo.
In series [5] the test system is C. albicans A-26. Kind of series: In vivo antifungal activity in X-irradiated mice infected intravenously with C. albicans A-26. Particulars: Candida albicans, A26, light or radiation study, sc, C. albicans A-26 i.v. infection, sub-lethal X-irradiation 24 hours prior, read-out: average effective dose, ED50. Here is the method:
As previously mentioned, the compounds of this invention are effective systemic antifungal agents. When administered orally or parenterally, the antifungal compounds of this invention are effective in combatting systemic fungal infections for example, Candida albicans systemic infections. […] The tests in mice were carried out in the following manner. Two groups of mice, one a control group, were exposed to a sub-lethal dose of X-irradiation 24 hours prior to infection with C. albicans A-26. The mice were infected by intravenous administration of C. albicans cells.

`Nc1ncnc2c1ncn2[C@@H]1O[C@H](CC(N)CC[C@H](N)C(=O)O)[C@@H](O)[C@H]1O` (stereo partly drawn) [A-9145, 5'-deoxy-5'-(1,4-diamino-4-carboxybutyl)adenosine]: in series [1], the solubility in methanol result is “partially soluble”. Besides, the “activity in vivo (known antibiotic)” value in series [2] was “active both in vitro and in vivo”. In addition, the “activity in vitro (known antibiotic)” value in series [3] was “active both in vitro and in vivo”.

Turning to `Nc1ncnc2c1ncn2[C@@H]1O[C@H](CC2CCC(N)C(=O)N2)[C@@H](O)[C@H]1O` (stereo partly drawn) [compound I, 5'-deoxy-5'-(3-aminopiperidin-2-one-6-yl)adenosine], in series [4] (mice, dose of about 1000 mg./kg.), the acute toxicity result was “no acute toxicity was observed”. Moreover, in series [1] (acetone), the solubility in acetone result is recorded as “sparingly soluble”. Moreover, in series [1] (ethanol), the solubility in ethanol entry was “sparingly soluble”. Moreover, in series [1], the solubility in methanol result is “sparingly soluble” and the solubility in water entry is listed as “highly soluble”. The 50% effective dose (ED50) in series [5] was determined as 38 mg/kg.

As to `NC(=O)NC(CCC(N)C[C@H]1O[C@@H](n2cnc3c(N)ncnc32)[C@H](O)[C@@H]1O)C(N)=O` (stereo partly drawn) [compound II, 5'-deoxy-5'-(1-amino-4-ureido-4-carboxyamidobutyl)adenosine], in series [4] (dose of 400 mg./kg.), the acute toxicity entry is recorded as “no acute toxicity was observed”. Further, the solubility in water entry in series [1] was “highly soluble”. For the same compound, the ED50 in series [5] was approximately 21 mg/kg.

Values taken from patent US4087603A, “Antifungal antibiotics” (priority 1976, dated 1978).
